# In ChEMBL document CHEMBL1201862, “PubChem BioAssay data set” (2004):
# Activity calls are given as the source filed them.
# Assays:
# [1] = target: Glucose-6-phosphate 1-dehydrogenase (Homo sapiens, UniProt P11413); test: human G6PD enzyme inhibitors, dose response, selectivity assay for P. falciparum G6PD inhibitor project, biochemical, fluorescence (AID 504792); assay type: functional
# Vero [2] = test: cells; assay type: functional, cell-based; conditions: Chlorocebus sabaeus
# [3] = inhibitors of firefly luciferase expression or activity, dose response, H4 neuroglioma cells, luminescence (AID 1990); assay type: functional, cell-based
# Streptococcus = test: Group A Streptococcus viability loss, dose response, counter-screen for streptokinase expression inhibitor project, luminescence, BacTiterGlo (AID 1915); assay type: functional, organism-based;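 note: potency for reduction of bacterial viability or growth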
# [4] = cytotoxicity in HEK-293T cells, dose response, cytotoxicity control for TCR NF-kB inhibitor project, luminescence, T-cell screen hits (AID 489026); assay type: functional, cell-based;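 note: cells exposed to compound about 14 hours before the viability readout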
# [5] = cytotoxicity toward DRD oncogenic fibroblasts, dose response, cell-based, non-viral oncogenic, luminescence (AID 1934); assay type: functional; conditions: Homo sapiens
# BJ [6] = test: cytotoxicity toward BJ-TERT fibroblasts, dose response, cell-based, RAS-independent, luminescence (AID 1933); assay type: functional; conditions: Homo sapiens
# [7] = target: T1, Heat shock factor protein 1 (Mus musculus, UniProt P38532); test: HSF1 potentiators in luciferase reporter cells, confirmation, cell-based, NIH3T3, luminescence, dose retest (AID 435004); assay type: functional;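 note: stress induced by proteasome inhibitor MG132 added 30 min after compound; luciferase reporter driven by HSF1 response element in NIH3T3 cells; actives raise luminescence as potentiators of the MG132 stress response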
# T1 sequence (P38532 whole entry): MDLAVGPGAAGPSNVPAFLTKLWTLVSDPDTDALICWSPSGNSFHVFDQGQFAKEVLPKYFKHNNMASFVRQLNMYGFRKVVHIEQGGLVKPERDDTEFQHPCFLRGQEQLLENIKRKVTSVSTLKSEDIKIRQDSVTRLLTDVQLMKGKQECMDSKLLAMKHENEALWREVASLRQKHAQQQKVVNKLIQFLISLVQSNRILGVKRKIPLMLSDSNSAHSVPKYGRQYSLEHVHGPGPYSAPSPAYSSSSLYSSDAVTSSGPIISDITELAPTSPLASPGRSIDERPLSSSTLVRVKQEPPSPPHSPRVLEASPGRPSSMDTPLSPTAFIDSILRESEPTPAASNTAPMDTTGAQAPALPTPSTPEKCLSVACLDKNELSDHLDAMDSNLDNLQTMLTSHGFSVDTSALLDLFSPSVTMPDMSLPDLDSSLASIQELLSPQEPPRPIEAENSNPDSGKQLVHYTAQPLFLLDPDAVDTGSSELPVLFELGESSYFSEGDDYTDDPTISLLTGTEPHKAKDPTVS
# [8] = luciferase reporter signal reduction – luminescence, H4-C neuroglioblastoma cells, dose response (AID 2458); assay type: functional, cell-based;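 note: H4 neuroglioblastoma cells stably carrying a luciferase reporter gene fusion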
# Exodeoxyribonuclease V = Exodeoxyribonuclease V (Escherichia coli (strain K12), UniProt P04993+P07648+P08394); test: E. coli RecBCD inhibitors, dose response, counter-screen for AddAB inhibitor project, absorbance, V66 E. coli, mutant T4 phage (AID 492957); assay type: functional, cell-based, Escherichia coli str. K-12 substr. MG1655
# Chain of Exodeoxyribonuclease V (P04993 whole entry): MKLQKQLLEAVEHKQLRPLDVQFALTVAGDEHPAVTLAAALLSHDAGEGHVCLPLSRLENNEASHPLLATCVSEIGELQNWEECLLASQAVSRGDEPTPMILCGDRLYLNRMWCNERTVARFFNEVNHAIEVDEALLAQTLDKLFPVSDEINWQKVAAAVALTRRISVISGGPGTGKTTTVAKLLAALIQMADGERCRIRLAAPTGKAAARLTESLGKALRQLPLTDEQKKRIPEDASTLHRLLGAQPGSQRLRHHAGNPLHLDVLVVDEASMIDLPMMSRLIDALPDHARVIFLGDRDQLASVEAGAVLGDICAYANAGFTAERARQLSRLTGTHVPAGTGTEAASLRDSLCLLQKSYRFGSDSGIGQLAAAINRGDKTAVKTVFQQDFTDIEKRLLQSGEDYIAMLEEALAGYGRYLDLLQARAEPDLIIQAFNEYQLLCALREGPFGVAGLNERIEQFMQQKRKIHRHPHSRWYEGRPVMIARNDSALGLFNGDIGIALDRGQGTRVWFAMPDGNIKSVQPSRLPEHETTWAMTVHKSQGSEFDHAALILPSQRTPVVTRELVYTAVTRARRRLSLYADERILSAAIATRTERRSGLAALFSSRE
# Chain of Exodeoxyribonuclease V (P07648 whole entry): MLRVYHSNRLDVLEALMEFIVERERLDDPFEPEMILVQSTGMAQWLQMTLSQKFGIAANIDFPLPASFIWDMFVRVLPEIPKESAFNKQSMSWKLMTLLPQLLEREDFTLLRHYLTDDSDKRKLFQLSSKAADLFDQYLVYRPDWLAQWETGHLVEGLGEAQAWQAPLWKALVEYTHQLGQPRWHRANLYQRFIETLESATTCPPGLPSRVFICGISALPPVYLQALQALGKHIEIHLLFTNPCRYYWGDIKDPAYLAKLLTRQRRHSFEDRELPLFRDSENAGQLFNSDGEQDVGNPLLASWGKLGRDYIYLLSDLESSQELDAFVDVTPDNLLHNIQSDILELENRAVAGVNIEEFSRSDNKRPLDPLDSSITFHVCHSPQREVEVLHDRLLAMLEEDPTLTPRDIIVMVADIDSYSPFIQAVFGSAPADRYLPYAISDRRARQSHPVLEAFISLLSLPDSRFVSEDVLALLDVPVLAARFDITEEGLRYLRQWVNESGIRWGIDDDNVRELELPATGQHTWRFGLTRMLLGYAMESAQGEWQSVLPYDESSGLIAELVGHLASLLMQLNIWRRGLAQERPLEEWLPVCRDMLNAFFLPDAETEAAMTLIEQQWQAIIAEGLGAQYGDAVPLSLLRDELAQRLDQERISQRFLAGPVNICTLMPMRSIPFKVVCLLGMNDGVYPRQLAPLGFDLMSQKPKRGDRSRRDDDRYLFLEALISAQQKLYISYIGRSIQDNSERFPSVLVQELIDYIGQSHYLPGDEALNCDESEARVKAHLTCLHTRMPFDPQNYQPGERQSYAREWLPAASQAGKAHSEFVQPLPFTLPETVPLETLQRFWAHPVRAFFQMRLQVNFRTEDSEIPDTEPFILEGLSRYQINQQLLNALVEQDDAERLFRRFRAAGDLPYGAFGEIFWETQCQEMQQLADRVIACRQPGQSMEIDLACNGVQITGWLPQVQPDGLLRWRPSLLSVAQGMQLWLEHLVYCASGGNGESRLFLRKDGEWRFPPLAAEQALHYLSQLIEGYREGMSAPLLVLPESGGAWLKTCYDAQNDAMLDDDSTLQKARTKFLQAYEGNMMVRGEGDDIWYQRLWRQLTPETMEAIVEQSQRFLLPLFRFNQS
# Chain of Exodeoxyribonuclease V (P08394 whole entry): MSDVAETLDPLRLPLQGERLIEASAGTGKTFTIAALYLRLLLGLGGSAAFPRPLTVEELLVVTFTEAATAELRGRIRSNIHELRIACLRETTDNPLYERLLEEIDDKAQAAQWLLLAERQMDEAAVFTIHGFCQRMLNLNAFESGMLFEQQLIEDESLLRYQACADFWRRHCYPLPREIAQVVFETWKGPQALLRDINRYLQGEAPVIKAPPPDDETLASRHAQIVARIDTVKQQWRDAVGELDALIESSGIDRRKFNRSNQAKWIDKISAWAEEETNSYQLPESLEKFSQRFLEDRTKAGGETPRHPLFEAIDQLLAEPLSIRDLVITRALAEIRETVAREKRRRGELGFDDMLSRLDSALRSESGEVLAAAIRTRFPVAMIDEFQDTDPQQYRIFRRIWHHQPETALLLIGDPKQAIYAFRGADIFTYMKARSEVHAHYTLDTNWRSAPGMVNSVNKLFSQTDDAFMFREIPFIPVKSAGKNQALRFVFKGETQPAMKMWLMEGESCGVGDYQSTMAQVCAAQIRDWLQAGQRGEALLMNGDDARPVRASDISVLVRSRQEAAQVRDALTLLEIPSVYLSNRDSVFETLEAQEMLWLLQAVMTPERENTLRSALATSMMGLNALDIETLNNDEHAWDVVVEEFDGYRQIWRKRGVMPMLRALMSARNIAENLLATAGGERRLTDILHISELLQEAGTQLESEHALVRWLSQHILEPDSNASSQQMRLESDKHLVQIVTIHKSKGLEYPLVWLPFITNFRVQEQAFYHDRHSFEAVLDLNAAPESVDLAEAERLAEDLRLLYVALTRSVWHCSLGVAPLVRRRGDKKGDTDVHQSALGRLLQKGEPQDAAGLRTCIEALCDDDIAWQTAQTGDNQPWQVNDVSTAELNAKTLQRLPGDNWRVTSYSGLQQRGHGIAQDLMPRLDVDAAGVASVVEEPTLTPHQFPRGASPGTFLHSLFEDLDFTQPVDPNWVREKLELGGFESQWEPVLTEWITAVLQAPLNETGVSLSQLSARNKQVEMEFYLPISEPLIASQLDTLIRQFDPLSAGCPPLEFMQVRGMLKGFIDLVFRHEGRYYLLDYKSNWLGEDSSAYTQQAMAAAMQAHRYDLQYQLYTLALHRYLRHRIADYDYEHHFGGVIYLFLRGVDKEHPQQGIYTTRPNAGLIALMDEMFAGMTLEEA
# BJ [9] = test: cells; assay type: functional, cell-based; conditions: Homo sapiens
# [10] = system: Streptococcus sp. 'group A'; test: growth inhibition of control SK(-) GAS strain, dose response, counter-screen for streptokinase expression inhibitor project, luminescence, kanamycin, BacTiterGlo, confirmation (AID 1900); assay type: functional, organism-based
# BJ [11] = test: cytotoxicity toward Ras-transformed BJeLR fibroblasts, dose response, cell-based, alamar blue fluorescence, cherrypicked samples (AID 2631); assay type: functional; conditions: Homo sapiens;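 note: confirmatory dose-response assay in RAS-dependent BJ fibroblasts engineered with TERT, LT and ST, with cytotoxicity read by fluorescence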
# Vero [12] = test: cells; assay type: functional; conditions: Chlorocebus sabaeus
# [13] = target: Heat shock protein HSP 90-alpha (Homo sapiens, UniProt P07900); assay type: functional, organism-based
# [14] = Counterscreen for AddAB inhibitors: absorbance-based bacterial cell-based high throughput dose response assay for inhibitors of bacterial viability. [Related pubchem assays (depositor defined):AID435030, AID449728, AID449731, AID488942, AID488955, AID488956]; assay type: functional
# BJ [15] = test: cytotoxicity toward BJ-TERT-LT-ST fibroblasts, dose response, cell-based, RAS-independent, luminescence (AID 1935); assay type: functional; conditions: Homo sapiens;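 note: BJ fibroblasts immortalized with TERT plus LT and ST oncogenes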
# cells = assay type: functional, cell-based
# [16] = insulin promoter down-regulators in MIN6 cells, imaging, high-content screening, mouse beta cells (AID 1628); assay type: functional
# [17] = inhibitors of SNCA 5'UTR-driven reporter translation, confirmation, H4 neuroglioma cells, luminescence (AID 1988); assay type: functional, cell-based
# [18] = Luminescence Cell-Based Dose Response HTS to Identify Inhibitors of 5'UTR Stem-Loop Driven Prion Protein mRNA Translation in H4 Neuroglioblastoma Cells. [Related pubchem assays: 1827 (Project Summary), 1813 (Primary HTS)]; assay type: functional
# [19] = inhibitors of SNCA 5'UTR-driven translation, confirmation, luminescence, H4 neuroglioblastoma cells, dose confirmation (AID 2454); assay type: functional, cell-based;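 note: H4 neuroglioblastoma cells carrying an alpha-synuclein 5'UTR luciferase reporter; potency for inhibition of the luciferase signal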
# [20] = cytotoxicity in MIN6 insulinoma cells, dose response, cytotoxicity control, cell-based, mouse insulinoma (AID 2122); assay type: functional;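 note: confirmatory high-throughput counterscreen run to flag cytotoxic compounds; mouse MIN-6 beta cells carrying an insulin promoter eGFP reporter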
# [21] = target: T2, Dual specificity protein phosphatase 6 (Rattus norvegicus, UniProt Q64346)
# T2 sequence (Q64346 whole entry): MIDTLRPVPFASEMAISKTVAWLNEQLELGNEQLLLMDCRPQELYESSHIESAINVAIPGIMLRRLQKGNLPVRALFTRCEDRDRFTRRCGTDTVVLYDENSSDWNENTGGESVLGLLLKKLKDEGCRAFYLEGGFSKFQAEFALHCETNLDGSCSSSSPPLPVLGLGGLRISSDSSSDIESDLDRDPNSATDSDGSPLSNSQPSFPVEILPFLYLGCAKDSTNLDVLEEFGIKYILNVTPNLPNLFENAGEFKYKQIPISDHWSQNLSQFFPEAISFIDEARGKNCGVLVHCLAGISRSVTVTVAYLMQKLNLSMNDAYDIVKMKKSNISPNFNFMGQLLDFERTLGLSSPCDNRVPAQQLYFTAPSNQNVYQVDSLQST
# [22] = target: Glyceraldehyde-3-phosphate dehydrogenase (Homo sapiens, UniProt P04406)
# Chain of Glyceraldehyde-3-phosphate dehydrogenase (P04406 whole entry): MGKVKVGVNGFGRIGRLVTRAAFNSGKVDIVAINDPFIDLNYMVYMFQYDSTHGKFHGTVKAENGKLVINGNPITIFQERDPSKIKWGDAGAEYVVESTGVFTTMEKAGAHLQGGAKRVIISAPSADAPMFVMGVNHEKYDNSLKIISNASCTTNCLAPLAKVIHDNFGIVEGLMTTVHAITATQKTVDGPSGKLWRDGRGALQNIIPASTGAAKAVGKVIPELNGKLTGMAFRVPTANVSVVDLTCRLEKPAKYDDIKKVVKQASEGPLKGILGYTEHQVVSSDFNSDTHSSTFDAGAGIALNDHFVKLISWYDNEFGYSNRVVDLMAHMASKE
# [23] = target: T2, Dual specificity protein phosphatase 6; assay type: functional
# [24] = target: T3, Tyrosine-protein phosphatase non-receptor type 7 (Homo sapiens, UniProt P35236); assay type: functional
# T3 sequence (P35236 whole entry): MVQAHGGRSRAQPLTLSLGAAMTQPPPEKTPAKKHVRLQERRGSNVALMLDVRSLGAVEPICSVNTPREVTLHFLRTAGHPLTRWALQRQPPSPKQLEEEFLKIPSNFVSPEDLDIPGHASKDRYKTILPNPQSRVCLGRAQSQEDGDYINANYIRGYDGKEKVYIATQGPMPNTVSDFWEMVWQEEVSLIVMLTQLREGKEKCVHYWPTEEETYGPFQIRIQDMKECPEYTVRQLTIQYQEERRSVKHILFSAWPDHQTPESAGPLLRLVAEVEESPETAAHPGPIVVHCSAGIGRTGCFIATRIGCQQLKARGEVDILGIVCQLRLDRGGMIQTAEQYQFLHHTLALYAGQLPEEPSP
# [25] = target: 5-hydroxytryptamine receptor 5A (Homo sapiens, UniProt P47898); test: Counterscreen for agonists of OPRM1-OPRD1 heterodimerization: luminescence-based cell-based high throughput dose response assay to identify agonists of 5-hydroxytryptamine (serotonin) 5A receptor (HTR5A). [Related pubchem assays (depositor defined):AID504326, AID504355, AID504692, AID504904, AID504905]; assay type: functional
# Chain of 5-hydroxytryptamine receptor 5A (P47898 whole entry): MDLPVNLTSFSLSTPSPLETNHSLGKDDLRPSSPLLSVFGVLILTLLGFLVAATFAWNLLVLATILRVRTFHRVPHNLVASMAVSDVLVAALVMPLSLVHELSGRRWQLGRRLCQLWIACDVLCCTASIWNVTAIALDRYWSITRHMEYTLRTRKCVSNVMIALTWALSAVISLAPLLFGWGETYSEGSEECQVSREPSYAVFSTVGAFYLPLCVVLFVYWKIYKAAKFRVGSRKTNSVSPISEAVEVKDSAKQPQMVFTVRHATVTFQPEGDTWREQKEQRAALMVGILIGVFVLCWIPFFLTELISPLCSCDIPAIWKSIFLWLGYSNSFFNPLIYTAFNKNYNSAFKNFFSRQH
# [26] = target: Delta-type opioid receptor (Homo sapiens, UniProt P41143); test: Counterscreen for agonists of heterodimerization of the mu 1 (OPRM1) and delta 1 (OPRD1) opioid receptors: Luminescence-based cell-based high throughput dose response assay to identify agonists of OPRD1 homodimerization. [Related pubchem assays (depositor defined):AID504326, AID504355, AID504692, AID504904, AID504905]; assay type: functional
# Chain of Delta-type opioid receptor (P41143 whole entry): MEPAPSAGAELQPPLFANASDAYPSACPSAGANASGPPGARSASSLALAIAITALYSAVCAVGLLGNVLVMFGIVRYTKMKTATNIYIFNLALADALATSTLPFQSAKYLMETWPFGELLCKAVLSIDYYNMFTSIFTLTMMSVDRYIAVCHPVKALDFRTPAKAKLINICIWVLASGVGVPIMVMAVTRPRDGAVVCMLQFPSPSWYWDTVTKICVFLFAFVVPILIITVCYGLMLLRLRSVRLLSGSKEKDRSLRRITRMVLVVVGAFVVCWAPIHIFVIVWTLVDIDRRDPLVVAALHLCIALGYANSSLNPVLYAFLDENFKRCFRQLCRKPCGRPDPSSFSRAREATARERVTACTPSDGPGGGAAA
# [27] = target: T4, Short transient receptor potential channel 4 (Mus musculus, UniProt Q9QUQ5); test: mouse TRPC4 channel activators, dose response, cell-based, HEK293 TRPC4/mu-opioid, Fluo-4 calcium (AID 434937); assay type: functional
# T4 sequence (Q9QUQ5 whole entry): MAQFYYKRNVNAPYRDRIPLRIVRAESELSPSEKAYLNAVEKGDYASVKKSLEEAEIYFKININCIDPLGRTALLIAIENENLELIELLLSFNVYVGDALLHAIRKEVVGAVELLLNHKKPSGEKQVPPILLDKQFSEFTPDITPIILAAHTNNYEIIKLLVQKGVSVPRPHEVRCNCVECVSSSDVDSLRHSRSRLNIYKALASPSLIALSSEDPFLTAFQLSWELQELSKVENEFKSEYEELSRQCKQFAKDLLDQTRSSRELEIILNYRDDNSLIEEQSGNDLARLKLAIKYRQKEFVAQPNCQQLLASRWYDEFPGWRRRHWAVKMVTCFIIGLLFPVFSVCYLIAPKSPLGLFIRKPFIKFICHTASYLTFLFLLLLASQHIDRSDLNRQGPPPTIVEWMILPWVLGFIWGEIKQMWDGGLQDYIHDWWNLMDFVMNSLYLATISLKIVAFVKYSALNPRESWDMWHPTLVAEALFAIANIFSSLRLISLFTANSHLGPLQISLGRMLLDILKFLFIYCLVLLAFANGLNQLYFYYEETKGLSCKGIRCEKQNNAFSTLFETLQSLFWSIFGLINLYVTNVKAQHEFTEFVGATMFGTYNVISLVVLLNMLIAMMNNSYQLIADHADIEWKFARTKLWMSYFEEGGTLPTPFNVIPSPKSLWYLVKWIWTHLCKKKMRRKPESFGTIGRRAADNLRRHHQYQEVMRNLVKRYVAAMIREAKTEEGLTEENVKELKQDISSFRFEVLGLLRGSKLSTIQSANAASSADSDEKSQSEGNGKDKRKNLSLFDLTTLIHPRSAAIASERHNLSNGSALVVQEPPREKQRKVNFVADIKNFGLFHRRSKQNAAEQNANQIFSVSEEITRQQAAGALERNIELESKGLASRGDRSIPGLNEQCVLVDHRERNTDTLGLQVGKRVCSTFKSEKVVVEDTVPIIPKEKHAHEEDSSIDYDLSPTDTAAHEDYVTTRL
# Mu-type opioid receptor = Mu-type opioid receptor (Homo sapiens, UniProt P35372); test: Counterscreen for agonists of heterodimerization of the mu 1 (OPRM1) and delta 1 (OPRD1) opioid receptors: Luminescence-based cell-based high throughput dose response assay to identify agonists of OPRM1 homodimerization.; assay type: functional;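 note: U2OS cells expressing OPRM1 and beta-arrestin as split beta-galactosidase partners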
# Chain of Mu-type opioid receptor (P35372 whole entry): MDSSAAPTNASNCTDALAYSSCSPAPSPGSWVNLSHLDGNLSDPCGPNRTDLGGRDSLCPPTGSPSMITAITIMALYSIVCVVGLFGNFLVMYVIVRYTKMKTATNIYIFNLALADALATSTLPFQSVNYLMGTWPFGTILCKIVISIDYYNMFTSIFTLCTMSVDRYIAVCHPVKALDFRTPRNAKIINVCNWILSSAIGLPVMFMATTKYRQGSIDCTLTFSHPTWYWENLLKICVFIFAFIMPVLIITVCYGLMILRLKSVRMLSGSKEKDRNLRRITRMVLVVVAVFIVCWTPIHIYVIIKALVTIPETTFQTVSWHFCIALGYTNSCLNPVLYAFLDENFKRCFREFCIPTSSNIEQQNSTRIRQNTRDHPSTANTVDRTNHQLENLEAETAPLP
# HEK293 [28] = test: cells; conditions: Homo sapiens
# HEK293 [29] = test: cells; conditions: Homo sapiens; remark: listed apart in the source
# [30] = target: T5, Calpain-2 catalytic subunit (Sus scrofa, UniProt P43367); test: pig calpain II inhibitor potency, dose response, biochemical, fluorogenic peptide substrate (AID 1420); assay type: functional
# T5 sequence (P43367 whole entry): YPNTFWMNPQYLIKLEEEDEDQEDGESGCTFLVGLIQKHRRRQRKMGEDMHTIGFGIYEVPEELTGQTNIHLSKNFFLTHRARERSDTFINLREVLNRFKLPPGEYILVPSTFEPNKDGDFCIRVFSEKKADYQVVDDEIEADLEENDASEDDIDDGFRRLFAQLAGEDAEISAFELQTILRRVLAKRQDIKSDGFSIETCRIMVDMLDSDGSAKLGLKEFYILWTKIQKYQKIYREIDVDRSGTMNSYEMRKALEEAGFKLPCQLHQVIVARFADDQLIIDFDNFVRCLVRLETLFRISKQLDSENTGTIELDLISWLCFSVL
# Chain of Glucose-6-phosphate 1-dehydrogenase (P11413 whole entry): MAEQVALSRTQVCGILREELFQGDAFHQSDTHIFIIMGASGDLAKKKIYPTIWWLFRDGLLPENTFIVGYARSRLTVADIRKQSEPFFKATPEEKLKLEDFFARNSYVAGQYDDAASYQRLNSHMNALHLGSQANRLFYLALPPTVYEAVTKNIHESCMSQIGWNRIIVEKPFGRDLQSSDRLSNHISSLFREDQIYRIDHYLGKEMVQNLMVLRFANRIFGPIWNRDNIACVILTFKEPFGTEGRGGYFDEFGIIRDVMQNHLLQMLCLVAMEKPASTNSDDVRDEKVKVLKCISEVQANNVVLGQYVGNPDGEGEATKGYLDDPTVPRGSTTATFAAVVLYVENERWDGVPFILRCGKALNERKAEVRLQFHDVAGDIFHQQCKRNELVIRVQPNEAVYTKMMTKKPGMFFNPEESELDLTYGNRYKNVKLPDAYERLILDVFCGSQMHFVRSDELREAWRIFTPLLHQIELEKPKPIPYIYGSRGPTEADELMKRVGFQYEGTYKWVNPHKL
compound,measurement,setting,value
CCOc1ccc(N(CC(=O)N/N=C/c2cc([N+](=O)[O-])ccc2Cl)S(C)(=O)=O)cc1,IC50,[1],> 80000 nM (inactive)
Oc1ccccc1N=Nc1nc(-c2ccccc2)c(-c2ccccc2)[nH]1,IC50,Vero [2],> 25000 nM (active)
same,EC50,[3],< 100 nM (active)
same,EC50,Streptococcus,1050 nM (active)
same,IC50,[4],> 80000 nM (inactive)
same,EC50,[5],515 nM (active)
same,EC50,BJ [6],643 nM (inconclusive)
same,EC50,[7],26000 nM (active)
same,EC50,[8],282 nM (active)
same,IC50,Exodeoxyribonuclease V,> 119000 nM (inactive)
same,EC50,BJ [9],951 nM (active)
same,EC50,[10],278 nM (active)
same,EC50,BJ [11],118 nM (active)
same,CC50,Vero [12],60 nM (active)
same,AC50,[13],2290 nM (active)
same,IC50,[14],> 119000 nM (inactive)
same,EC50,BJ [15],1670 nM (active)
same,EC50,cells,355 nM (active)
same,IC50,[16],533 nM (active)
same,EC50,[17],< 100 nM (active)
same,EC50,[18],103 nM (active)
same,EC50,[19],507 nM (active)
same,IC50,[20],820 nM (active)
Cn1c(=O)n(-c2ccccc2)c(=O)n([C@@H](Cc2ccccc2)C(N)=O)c1=O,IC50,[21],> 100000 nM (inactive)
same,IC50,[22],> 100000 nM (not active)
same,IC50,[23],> 100000 nM (inactive)
same,IC50,[24],> 100000 nM (not active)
COc1ccc(C(CNC(=O)CSc2ccccc2C)N(C)C)cc1 (centres undefined),EC50,[25],> 92500 nM (inactive)
same,EC50,[26],> 92500 nM (inactive)
same,EC50,[27],237 nM (active)
same,EC50,Mu-type opioid receptor,> 92500 nM (inactive)
Cn1c(=O)n(C)c2cc(S(=O)(=O)N3CCCc4ccccc43)ccc21,EC50,HEK293 [28],> 59600 nM (inactive)
same,EC50,HEK293 [29],> 59600 nM (inactive)
same,IC50,[30],7050 nM (not active)
